Where two headings read alike, the source gives them in different places.
Experiments:
[1] = target: T1, human somatostatin receptor subtype 2 (Homo sapiens, UniProt P30874); assay: cAMP assay for SST2R (inhibition of cAMP via human SST2 receptor); format: cell-based; details: Table B, read-out: SST2 potency
T1 construct: expressed in transfected cells
Source text: cAMP Assay Protocol for SST2R:

[2] = target: human somatostatin receptor subtype 5 (Homo sapiens, UniProt P35346); assay: cAMP assay for SST5R (inhibition of cAMP via human SST5 receptor); details: for Fold selectivity for SST5 vs SST2: SST5 over SST2, class symbols
Description: cAMP Assay Protocol for SST5R:
The cells are cultured at 37° C., 5% CO2 and 95% humidity. […] The cells are incubated for 20 minutes at 37° C. […] The cells are treated with 50 μL of lysis buffer (HRTF cAMP kit, Cisbio) for 30 minutes and then the lysate is diluted to 250 μL with assay buffer. The lysate is transferred to 384-well plates and cAMP detection and visualization antibodies are added and incubated for 1-24 hours at room temperature. The time-resolved fluorescent signal is read with a Tecan M1000Pro multiplate reader. The intracellular cAMP concentrations are calculated by regression to a standard curve and are plotted vs. the concentration of the compounds of the invention and the EC50 of the compounds are calculated using standard methods. All data manipulations are in GraphPad Prism v6 or v7.

[3] = read-out: SST5 potency, inhibition of cAMP via human SST5 receptor, Table B

T1 sequence (P30874 whole entry): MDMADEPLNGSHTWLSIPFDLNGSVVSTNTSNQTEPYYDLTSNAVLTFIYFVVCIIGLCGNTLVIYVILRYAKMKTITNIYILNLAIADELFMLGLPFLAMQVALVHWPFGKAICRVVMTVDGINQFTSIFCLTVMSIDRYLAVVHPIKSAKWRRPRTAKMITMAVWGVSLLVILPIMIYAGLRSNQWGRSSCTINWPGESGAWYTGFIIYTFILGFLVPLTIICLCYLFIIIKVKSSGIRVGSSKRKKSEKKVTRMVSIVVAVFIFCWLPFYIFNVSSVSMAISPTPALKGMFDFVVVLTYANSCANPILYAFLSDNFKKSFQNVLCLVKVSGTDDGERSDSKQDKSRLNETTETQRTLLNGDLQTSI
Chain of human somatostatin receptor subtype 5 (P35346 whole entry): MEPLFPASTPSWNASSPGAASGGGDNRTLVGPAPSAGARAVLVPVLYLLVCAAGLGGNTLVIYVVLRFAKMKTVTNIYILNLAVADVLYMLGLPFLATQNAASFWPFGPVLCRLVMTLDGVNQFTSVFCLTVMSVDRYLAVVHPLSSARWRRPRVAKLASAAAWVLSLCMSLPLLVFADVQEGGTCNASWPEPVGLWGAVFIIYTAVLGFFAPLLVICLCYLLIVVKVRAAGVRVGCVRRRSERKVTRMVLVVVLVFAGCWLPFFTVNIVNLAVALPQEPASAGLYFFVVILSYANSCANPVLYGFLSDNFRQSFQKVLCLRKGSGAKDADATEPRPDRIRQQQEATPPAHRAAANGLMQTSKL

Structure (SMILES)	EC50 [1] [µM]	EC50 [2] [µM]	Fold selectivity for SST5 vs SST2 [2]	EC50 [2, 3] [µM]
Cc1cccc2[nH]c(-c3cncc(-c4cc(F)c(F)c(C(N)=O)c4)c3N3CCC(C)(N)C3)nc12 (stereo not drawn) [Compound 2-127, 5-[4-(3-Amino-3-methylpyrrolidin-1-yl)-5-(4-methyl-1H-1,3-benzodiazol-2-yl)pyridin-3-yl]-2,3-difluorobenzamide]	0.1 to 1	< 0.01	++ (++=100 to 499)	< 0.01
Cc1cccc2nc(-c3cncc(-c4ccnc(C#N)c4)c3N3CC[C@H](N)C3)[nH]c12 [Compound 2-128, 4-[(3S)-3-aminopyrrolidin-1-yl]-5-(4-methyl-1H-1,3-benzodiazol-2-yl)-[3,4′-bipyridine]-2′-carbonitrile]	0.1 to 1	< 0.01	+++ (+++=≥500)	< 0.01
Cn1c(-c2cncc(-c3ccc(F)c(C#N)c3)c2N2CC[C@H](N)C2)nc2c(Cl)cccc21 [Compound 2-131, 5-{4-[(3S)-3-aminopyrrolidin-1-yl]-5-(4-chloro-1-methyl-1H-1,3-benzodiazol-2-yl)pyridin-3-yl}-2-fluorobenzonitrile]	> 1	0.01 to 0.1	+++ (+++=≥500)	0.01 to 0.1
Cc1cccc2c1nc(-c1cncc(-c3ccc(F)c(C#N)c3)c1N1CC[C@H](N)C1)n2C [Compound 2-132, 5-{4-[(3S)-3-aminopyrrolidin-1-yl]-5-(1,4-dimethyl-1H-1,3-benzodiazol-2-yl)pyridin-3-yl}-2-fluorobenzonitrile]	> 1	< 0.01	+++ (+++=≥500)	< 0.01
Cc1cccc2nc(-c3cncc(-c4cc(F)cc(C#N)c4)c3N3CC[C@@](N)(CO)C3)[nH]c12 [Compound 2-135, 3-{4-[(3S)-3-amino-3-(hydroxymethyl)pyrrolidin-1-yl]-5-(4-methyl-1H-1,3-benzodiazol-2-yl)pyridin-3-yl}-5-fluorobenzonitrile]	0.01 to 0.1	< 0.01	++ (++=100 to 499)	< 0.01
Cc1cccc2nc(-c3cncc(-c4cc(F)c(F)c(C#N)c4)c3N3CC[C@H](N)C3)[nH]c12 [Compound 2-139, 5-{4-[(3S)-3-aminopyrrolidin-1-yl]-5-(4-methyl-1H-1,3-benzodiazol-2-yl)pyridin-3-yl}-2,3-difluorobenzonitrile]	0.01 to 0.1	< 0.01	++ (++=100 to 499)	< 0.01
Cc1ccnc2nc(-c3cncc(-c4cc(F)c(F)c(C#N)c4)c3N3CCC(C)(N)C3)[nH]c12 (stereo not drawn) [Compound 2-140, 5-[4-(3-amino-3-methylpyrrolidin-1-yl)-5-{7-methyl-1H-imidazo[4,5-b]pyridin-2-yl}pyridin-3-yl]-2,3-difluorobenzonitrile]	0.01 to 0.1	< 0.01	++ (++=100 to 499)	< 0.01
Cc1cccc2nc(-c3cncc(-c4ccc(F)c(OC(F)(F)F)c4)c3N3CC[C@H](N)C3)[nH]c12 [Compound 2-141, (3S)-1-{3-[4-fluoro-3-(trifluoromethoxy)phenyl]-5-(4-methyl-1H-1,3-benzodiazol-2-yl)pyridin-4-yl}pyrrolidin-3-amine]	0.1 to 1	< 0.01	++ (++=100 to 499)	< 0.01
CCn1c(-c2cncc(-c3ccc(F)c(C#N)c3)c2N2CC[C@H](N)C2)nc2c(F)cccc21 [Compound 2-142, 5-{4-[(3S)-3-aminopyrrolidin-1-yl]-5-(1-ethyl-4-fluoro-1H-1,3-benzodiazol-2-yl)pyridin-3-yl}-2-fluorobenzonitrile]	> 1	< 0.01	+++ (+++=≥500)	< 0.01
CCn1c(-c2cncc(-c3cccc(C#N)c3)c2N2CC[C@H](N)C2)nc2c(F)cccc21 [Compound 2-143, 3-{4-[(3S)-3-aminopyrrolidin-1-yl]-5-(1-ethyl-4-fluoro-1H-1,3-benzodiazol-2-yl)pyridin-3-yl}benzonitrile]	0.1 to 1	< 0.01	+++ (+++=≥500)	< 0.01
CCn1c(-c2cncc(-c3cc(F)cc(C#N)c3)c2N2CC[C@H](N)C2)nc2c(F)cccc21 [Compound 2-144, 3-{4-[(3S)-3-aminopyrrolidin-1-yl]-5-(1-ethyl-4-fluoro-1H-1,3-benzodiazol-2-yl)pyridin-3-yl}-5-fluorobenzonitrile]	> 1	< 0.01	+++ (+++=≥500)	< 0.01
Cc1cccc(-c2cncc(-c3nc4cccc(C)c4[nH]3)c2N2CC[C@H](N)C2)c1 [Compound 2-146, (3S)-1-[3-(4-methyl-1H-1,3-benzodiazol-2-yl)-5-(3-methylphenyl)pyridin-4-yl]pyrrolidin-3-amine]	0.1 to 1	< 0.01	++ (++=100 to 499)	< 0.01
CC1(N)CCN(c2c(-c3ccc(F)c(C#N)c3)cncc2-c2nc3cccc(C#N)c3[nH]2)C1 (stereo not drawn) [Compound 2-147, 2-[4-(3-amino-3-methylpyrrolidin-1-yl)-5-(3-cyano-4-fluorophenyl)pyridin-3-yl]-1H-1,3-benzodiazole-4-carbonitrile]	0.1 to 1	< 0.01	+++ (+++=≥500)	< 0.01
CC1(N)CCN(c2c(-c3ccnc(C#N)c3)cncc2-c2nc3cccc(C(F)(F)F)c3[nH]2)C1 (stereo not drawn) [Compound 2-148, 4-(3-amino-3-methylpyrrolidin-1-yl)-5-[4-(trifluoromethyl)-1H-1,3-benzodiazol-2-yl]-[3,4′-bipyridine]-2′-carbonitrile]	0.1 to 1	< 0.01	+++ (+++=≥500)	< 0.01
Cc1cncc2nc(-c3cncc(-c4ccc(F)c(C#N)c4)c3N3CCC(C)(N)C3)[nH]c12 (stereo not drawn) [Compound 2-149, 5-[4-(3-amino-3-methylpyrrolidin-1-yl)-5-{7-methyl-3H-imidazo[4,5-c]pyridin-2-yl}pyridin-3-yl]-2-fluorobenzonitrile]	0.1 to 1	< 0.01	++ (++=100 to 499)	< 0.01

Other lines, results leading:

EC50 [1] [µM]	EC50 [2] [µM]	Fold selectivity for SST5 vs SST2 [2]	EC50 [2, 3] [µM]	Structure (SMILES)
0.1 to 1	< 0.01	++ (++=100 to 499)	< 0.01	Cc1ccnc2[nH]c(-c3cncc(-c4cccc(C#N)c4)c3N3CC[C@](C)(N)C3)nc12 [Compound 2-155, 3-{4-[(3S)-3-amino-3-methylpyrrolidin-1-yl]-5-{7-methyl-1H-imidazo[4,5-b]pyridin-2-yl}pyridin-3-yl}benzonitrile]
0.01 to 0.1	< 0.01	+++ (+++=≥500)	< 0.01	CC1(N)CCN(c2c(-c3ccnc(C#N)c3)cncc2-c2nc3cccc(Cl)c3[nH]2)C1 (stereo not drawn) [Compound 2-157, 4-(3-amino-3-methylpyrrolidin-1-yl)-5-(4-chloro-1H-1,3-benzodiazol-2-yl)-[3,4′-bipyridine]-2′-carbonitrile]
0.1 to 1	< 0.01	+++ (+++=≥500)	< 0.01	C[C@]1(N)CCN(c2c(-c3ccnc(C#N)c3)cncc2-c2nc3cccc(Cl)c3[nH]2)C1 [Compound 2-163, 4-[(3S)-3-amino-3-methylpyrrolidin-1-yl]-5-(4-chloro-1H-1,3-benzodiazol-2-yl)-[3,4′-bipyridine]-2′-carbonitrile]
0.1 to 1	< 0.01	+++ (+++=≥500)	< 0.01	Cc1cc(F)cc2[nH]c(-c3cncc(-c4ccnc(C#N)c4)c3N3CC[C@](C)(N)C3)nc12 [Compound 2-166, 4-[(3S)-3-amino-3-methylpyrrolidin-1-yl]-5-(6-fluoro-4-methyl-1H-1,3-benzodiazol-2-yl)-[3,4′-bipyridine]-2′-carbonitrile]
> 1	< 0.01	+++ (+++=≥500)	< 0.01	C[C@]1(N)CCN(c2c(-c3ccc(F)c(C#N)c3)cncc2-c2nc3ncccc3[nH]2)C1 [Compound 2-167, 5-{4-[(3S)-3-amino-3-methylpyrrolidin-1-yl]-5-{1H-imidazo[4,5-b]pyridin-2-yl}pyridin-3-yl}-2-fluorobenzonitrile]
> 1	< 0.01	+++ (+++=≥500)	< 0.01	Cc1cnc2nc(-c3cncc(-c4ccc(F)c(C#N)c4)c3N3CC[C@](C)(N)C3)[nH]c2c1 [Compound 2-170, 5-{4-[(3S)-3-amino-3-methylpyrrolidin-1-yl]-5-{6-methyl-1H-imidazo[4,5-b]pyridin-2-yl}pyridin-3-yl}-2-fluorobenzonitrile]
> 1	< 0.01	+++ (+++=≥500)	< 0.01	COc1ccnc2nc(-c3cncc(-c4ccc(F)c(C#N)c4)c3N3CC[C@](C)(N)C3)[nH]c12 [Compound 2-172, 5-{4-[(3S)-3-amino-3-methylpyrrolidin-1-yl]-5-{7-methoxy-1H-imidazo[4,5-b]pyridin-2-yl}pyridin-3-yl}-2-fluorobenzonitrile]
0.1 to 1	< 0.01	+++ (+++=≥500)	< 0.01	C[C@]1(N)CCN(c2c(-c3ccnc(C#N)c3)cncc2-c2nc3cccc(C(F)(F)F)c3[nH]2)C1 [Compound 2-175, 4-[(3S)-3-amino-3-methylpyrrolidin-1-yl]-5-[7-(trifluoromethyl)-1H-1,3-benzodiazol-2-yl]-[3,4′-bipyridine]-2′-carbonitrile]
0.1 to 1	< 0.01	+++ (+++=≥500)	< 0.01	C[C@]1(N)CCN(c2c(-c3cccc(C#N)c3)cncc2-c2nc3cccc(C#N)c3[nH]2)C1 [Compound 2-177, 2-{4-[(3 S)-3-amino-3-methylpyrrolidin-1-yl]-5-(3-cyanophenyl)pyridin-3-yl}-1H-1,3-benzodiazole-7-carbonitrile]

Reference: patent publication US11608335B2, “Somatostatin modulators and uses thereof” (CRINETICS PHARMACEUTICALS, INC., priority 2018, dated 2023)
